Where two headings read alike, the source gives them in different places.
Assays:
HSV1 = test: Viral qPCR assay, HSV1; assay type: cell-based; settings: infected cells, viral genome copies by qPCR normalized to PPIA, read-out: HSV1 Cell EC50
Experimental: (§1) MRC5 cells, Vero cells, and MeWo cells were obtained from ATCC, and were maintained at 37° C./5% CO2/90% relative humidity in Minimal Essential Medium with 10% fetal bovine serum, […] L-glutamine, 100 units/ml penicillin and 100 ug/ml streptomycin. Assay plates were prepared by dispensing compounds dissolved in DMSO into wells of 384 well collagen-coated plates using an ECHO acoustic dispenser. Each test compound was tested in a 10-point, serial 3-fold dilution. Controls included uninfected cells and infected cells treated only with DMSO. Assays were initiated by mixing selected cells, in suspension, with virus, and dispensing 50 μl/well infected cells to pre-plated compounds. Plates were incubated at 37° C./5% CO2/90% relative humidity for ˜72 hrs to permit genomic replication, and infected cells were lysed by the addition of an equal volume of lysis buffer (10 mM Tris-HCl, pH8, 50 mM KCl, 2 mM MgCl2, 0.45% NP-40, 0.45% Tween-20, and 100 µg/ml proteinase K). An aliquot of the lysate was then transferred to a 384-well PCR plate and incubated at 56° C. for 1 hour, and then at 95° C. for 10 minutes. Levels of the selected viral gene and of the cellular control, PPIA, were measured in separate 10 μl qPCR assays using TaqMan® Gene Expression Master Mix (Applied Biosystems), and an 7900HT Fast Real-Time PCR System with 384-Well Block Module. 7-point, serial 10-fold dilutions of a plasmid standard were run on each plate to generate a standard curve, and genome copies numbers were calculated by plotting experimental Ct onto linear regression of the standard curve. Viral genome copy numbers were normalized by cellular control copy number, and compound effects were normalized to the window defined by the controls. Calculated % effects were fit using a 4-parameter algorithm, and EC50 was reported.

[1] = target: varicella zoster virus DNA polymerase (Varicella-zoster virus (strain Dumas) (HHV-3) (Human herpesvirus 3), UniProt P09252); test: VZV polymerase assay (AlphaLISA); assay type: biochemical; settings: VZV polymerase 0.4 nM, 30 min pre-incubation, 60 minute at 37° C.
Experimental: (§2) Human cytomegalovirus and varicella zoster virus DNA polymerases were expressed via baculovirus vector in SF21 cells and purified. Heterodimeric nucleic acid substrate used in the herpesvirus polymerase reactions were generated by annealing a 59-mer template to a 17-mer digoxigenin-labeled primer. Polymerase (HCMV final concentration of 0.2 nM; VZV final concentration of 0.4 nM) was combined with an inhibitor compound or DMSO in assay buffer (10 mM HEPES, pH 7.5, 25 mM KCl, 25 mM NaCl, 5 mM MgCl2, 5% glycerol, 0.67 mg/ml bovine serum albumin, and 1 mM tris(2-carboxyethyl)phosphine)), and this mixture was pre-incubated for 30 minutes at room temperature in 384-well microtiter plates. The polymerization reaction was initiated by the addition of template/primer substrate (final concentration: 1.6 nM), and dNTPs (final concentration: 24 nM dCTP, 24 nMdGTP, 16 nM dATP, 16 nM dTTP, and 0.8 nM biotin-dUTP). After a 60 minute incubation period at 37° C., the reactions were terminated using quench buffer (25 mM HEPES pH 7.5, 100 mM NaCl, 0.25% Tween-20, 12 mM EDTA, and 1 mg/ml bovine serum albumin). Incorporation of biotinylated UTP was detected with 2.5-5 μg/mL anti-DIG AlphaLISA acceptor beads and 5-10 μg/mL streptavidin AlphaLISA donor beads (PerkinElmer). Compound effects were normalized to the window defined by the controls (DMSO only and pre-quenched wells), and were fit using a 4-parameter algorithm to report an IC50.

[2] = target: Human cytomegalovirus DNA polymerase (Human cytomegalovirus (strain AD169) (HHV-5) (Human herpesvirus 5), UniProt P08546); test: CMV polymerase assay (AlphaLISA); assay type: biochemical; settings: HCMV polymerase 0.2 nM, 30 min pre-incubation, 60 minute at 37° C.
Experimental: as §2

HSV2 = test: Viral qPCR assay, HSV2; assay type: cell-based; settings: infected cells, viral genome copies by qPCR normalized to PPIA, read-out: HSV2 Cell EC50
Experimental: as §1

CMV = test: Viral qPCR assay, CMV; assay type: cell-based; settings: infected cells, viral genome copies by qPCR normalized to PPIA, read-out: CMV Cell EC50
Experimental: as §1

SMILES | EC50 (HSV1; Human alphaherpesvirus 1, 72 h) [nM] | IC50 [1] [nM] | IC50 [2] [nM] | EC50 (HSV2; Human alphaherpesvirus 2, 72 h) [nM] | EC50 (CMV; Human betaherpesvirus 5, 72 h) [nM] | EC50 (HSV1; ~72 hrs) [nM] | EC50 (HSV2; ~72 hrs) [nM] | EC50 (CMV; ~72 hrs) [nM]
Cc1nc2ccc(O[C@H]3CCN4C(=O)OC[C@@H]4C3)cc2c(=O)n1Cc1ccc(C#N)cc1 [Example 59] | 746 | 29 | 31 | 561 | 347 | – | – | –
Cc1nc2cc(-c3cnc(C4CC4)nc3)c(O[C@H]3CCN4C(=O)OC[C@@H]4C3)cc2c(=O)n1Cc1ccc(Cl)cc1 [Example 95] | 301 | 19 | 18 | 182 | 366 | – | – | –
Cc1nc2cc(-c3cn(C(F)F)cn3)c(O[C@H]3CCN4C(=O)OC[C@@H]4C3)cc2c(=O)n1Cc1ccc(C#N)cc1 [Example 80] | 157 | 5.6 | 7.6 | 227 | 124 | – | – | –
Cc1nc2cc(-c3cnn(C4CCN(C)CC4)c3)c(O[C@H]3CCN4C(=O)OC[C@@H]4C3)cc2c(=O)n1Cc1ccc(C#N)cc1 [Example 71] | 234 | 13 | 3.7 | 171 | 197 | – | – | –
Cc1nc2cc(-c3cnc(N4CCOCC4)nc3)c(O[C@H]3CCN4C(=O)OC[C@@H]4C3)cc2c(=O)n1Cc1ccc(Cl)cc1 [Example 97] | 163 | 15 | 14 | 96 | 198 | – | – | –
Cc1nc2cc(C3CC(O)C3)c(O[C@H]3CCN4C(=O)OC[C@@H]4C3)cc2c(=O)n1Cc1ccc(Cl)cc1 (single isomer, unassigned) [Example 62] | – | 4.8 | 1 | – | – | 113 | 57 | 57
Cc1nc2cc(-c3cn4c(n3)CN(C)CC4)c(O[C@H]3CCN4C(=O)OC[C@@H]4C3)cc2c(=O)n1Cc1ccc(C#N)cc1 [Example 87] | 313 | 0.8 | 0.44 | 275 | 198 | – | – | –
Cc1nc2cc(C3CC(O)C3)c(O[C@H]3CCN4C(=O)OC[C@@H]4C3)cc2c(=O)n1Cc1ccc(Cl)cc1 (single isomer, unassigned) [Example 61] | – | 11 | 6.5 | – | – | 250 | 202 | 173
O=C1OC[C@@H]2C[C@@H](Oc3cc4c(=O)n(Cc5ccc(Cl)cc5)ccc4cc3-c3cnn(C(F)F)c3)CCN12 [Example 27] | 124 | 5.9 | 5.3 | 59 | 114 | – | – | –
CC1CN(C)CCC1(F)c1ccc2ncn(Cc3ccc(Cl)cc3)c(=O)c2c1 (single isomer, unassigned) [Example 47] | 1580 | 102 | 84 | 1370 | 550 | – | – | –
COc1cnc(-c2cc3nc(C)n(Cc4ccc(Cl)cc4)c(=O)c3cc2O[C@H]2CCN3C(=O)OC[C@@H]3C2)nc1 [Example 88] | 543 | 25 | 28 | 225 | 718 | – | – | –
CC(=O)N1CC[C@@H](Oc2cnc3ccn(Cc4ccc(Cl)cc4)c(=O)c3c2)C[C@H]1C (single isomer, unassigned) [Example 35] | – | 82 | 66 | – | – | – | – | –
CC(C)(N)Cc1cc2ccn(Cc3ccc(Cl)cc3)c(=O)c2cc1O[C@H]1CCN2C(=O)OC[C@@H]2C1 [Example 32] | 772 | 33 | 15 | 402 | 392 | – | – | –
CCOc1ncc(-c2cc3nc(C)n(Cc4ccc(Cl)cc4)c(=O)c3cc2O[C@H]2CCN3C(=O)OC[C@@H]3C2)cn1 [Example 98] | 256 | 15 | 16 | 185 | 284 | – | – | –
Cc1nc2cc(C#N)c(N3CCN(C)C[C@H]3C)cc2c(=O)n1Cc1ccc(C#N)cc1F [Example 63] | 3150 | – | 235 | 3710 | 498 | – | – | –
O=C1OC[C@@H]2C[C@@H](Oc3cnc4ccn(Cc5ccc(Cl)cc5)c(=O)c4c3)CCN12 [Example 25] | 1310 | 55 | 76 | 730 | 569 | – | – | –

SMILES | EC50 (HSV1; Human alphaherpesvirus 1, 72 h) [nM] | IC50 [1] [nM] | IC50 [2] [nM] | EC50 (HSV2; Human alphaherpesvirus 2, 72 h) [nM] | EC50 (CMV; Human betaherpesvirus 5, 72 h) [nM] | EC50 (HSV1; ~72 hrs) [nM] | EC50 (HSV2; ~72 hrs) [nM] | EC50 (CMV; ~72 hrs) [nM]
COc1ncc(-c2cc3nc(C)n(Cc4ccc(Cl)cc4)c(=O)c3cc2O[C@H]2CCN3C(=O)OC[C@@H]3C2)cn1 [Example 5] | – | – | 15 | – | – | 131 | 85 | 107
O=C1OC[C@@H]2C[C@@H](Oc3ccc4ccn(Cc5ccc(Cl)cc5)c(=O)c4c3)CCN12 [Example 23] | 1320 | 26 | 40 | 961 | 482 | – | – | –
C[C@@H]1CN(C)CCN1c1cc(CC(C)(C)O)c2ncn(Cc3ccc(Cl)cc3)c(=O)c2c1 [Example 55] | – | 139 | 109 | – | – | – | – | –
COc1ccc(-c2cc3ncn(Cc4ccc(Cl)cc4)c(=O)c3cc2O[C@H]2CCN3C(=O)OC[C@@H]3C2)cn1 [Example 57] | – | 43 | 43 | – | – | – | – | –
CC(c1ccc(Cl)cc1)n1ccc2ncc(O[C@H]3CCN4C(=O)OC[C@@H]4C3)cc2c1=O (single isomer, unassigned) [Example 30] | – | 157 | 207 | – | – | – | – | –
O=C1OC[C@@H]2C[C@@H](Oc3ccc4c(CO)cn(Cc5ccc(Cl)cc5)c(=O)c4c3)CCN12 [Example 29] | 256 | 13 | 21 | – | 240 | – | – | –
Cc1nc2c(CC(C)(C)O)cc(O[C@H]3CCN4C(=O)OC[C@@H]4C3)cc2c(=O)n1Cc1ccc(Cl)cc1 [Example 67] | – | 53 | 22 | – | – | – | – | –
C[C@@H]1CN(C)CCN1c1cc2c(=O)n(Cc3ccc(Cl)cc3)cnc2cc1-c1cnn(C(F)F)c1 [Example 50] | – | 422 | 545 | – | – | – | – | –
C[C@@H]1CN(C2CCOCC2)CCN1c1ccc2ncn(Cc3ccc(Cl)cc3)c(=O)c2c1 [Example 43] | – | 4960 | 9820 | – | – | – | – | –
CN1CCN(c2ccc3ccn(Cc4ccc(Cl)cc4)c(=O)c3c2)CC1 [Example 21] | – | 7330 | 5850 | – | – | – | – | –
Cc1nc2nc(-c3ccn(C(F)F)n3)c(O[C@H]3CCN4C(=O)OC[C@@H]4C3)cc2c(=O)n1Cc1ccc(Cl)cc1 [Example 20] | 247 | – | – | 209 | 117 | – | – | –
Cc1nc2cc(-c3nc4cnccn4n3)c(O[C@H]3CCN4C(=O)OC[C@@H]4C3)cc2c(=O)n1Cc1ccc(Cl)cc1 [Example 101] | 223 | – | – | 88 | 449 | – | – | –
Cc1nc2cc(-c3cc4n(n3)C(C(F)(F)F)CN(C)C4)c(O[C@H]3CCN4C(=O)OC[C@@H]4C3)cc2c(=O)n1Cc1ccc(Cl)cc1 (single isomer, unassigned) [Example 152] | – | – | – | – | – | 231 | 226 | 159
Cc1nc2cc(-c3cc4ccccn4n3)c(O[C@H]3CCN4C(=O)OC[C@@H]4C3)cc2c(=O)n1Cc1ccc(Cl)cc1 [Example 15] | 74 | – | – | 41 | 60 | – | – | –
COc1ncc(-c2cc3nc(C)n(Cc4ccc(Cl)cc4)c(=O)c3cc2O[C@H]2CCN3C(=O)OC[C@@H]3C2)c(C)n1 [Example 93] | 2590 | – | – | 3380 | 1430 | – | – | –
